Source: patent US11753411B2, “Substituted pyrazolo[1,5-a]pyrimidines as TYK2 pseudokinase ligands” (Ventyx Biosciences, Inc., priority 2019, dated 2023)

Each compound was assayed on IFN-a/Jak1 Tyk2 (assay: Co-stimulation assay in lysed whole blood: IFNa (JAK1/TYK2) stimulated STAT1 phosphorylation). Conditions: Homo sapiens, 20 min, 100 ng/mL IFNa (with 10 ng/mL GM-CSF), pSTAT by flow cytometry.
Type: cell-based
Protocol: Example 12: Co-Stimulation Assay in Lysed Whole Blood; JAK2: GM-CSF Stimulated STAT5 Phosphorylation and JAK1/TYK2 Stimulated STAT1 Phosphorylation Assay
Human Blood Lysis Using Abcam's RBC Lysis Buffer
Dilute RBC lysis buffer to 1× in distilled water. Add 2 mL blood to 38 mL of 1×RBC-lysis buffer. Incubate for 15 mins at RT, in dark. Spin at 300 g, 5 mins, to collect the pellet. Re-lyse if necessary. Re-suspend pellet in 5 mL of cRPMI.
Compound and Cytokine Treatment
Aliquot 80 μL of lysed human blood in to wells of 96 deep-well plate. Add 10 μl of (10× conc.) of different concentrations of compounds to all wells except controls (unstained and unstimulated) and mix it with the help of 100 uL multichannel. Add 10 uL of RPMI media in controls. For dilution of compounds and dilution range please refer Appendix. Incubate on water bath or CO2 incubator for 1 hour at 37° C. Add 10 μl of (10× conc.) of cytokine mix (GM-CSF and IFNa) (final conc.10 ng/mL of GM-CSF and 100 ng/mL of IFNa) to each well except unstimulated and unstained controls and incubate further for 20 minutes on water bath at 37° C.
Add 900 μL of prewarmed 1× Fix/Lyse solution (Appendix) and mix it properly using 1000 μl multichannel, incubate further on water bath at 37° C. for 10 minutes (which includes time of addition). Centrifuge at 800×g for 5 minutes at 40° C.; remove 900 uL of supernatant and add 900 μL of 1×PBS. Centrifuge at 800×g for 5 minutes at 40° C., remove 900 μL of supernatant. Wash one more time with 900 μL of PBS (optional) and resuspend pellets in 100 uL of PBS.
Disrupt the pellet by gentle tapping and resuspend in 1000 μL of BD Phosflow Perm Buffer III and incubate plate on ice for 30 minutes. Centrifuge plate at 800×g for 5 minutes at 40° C. Wash two more times with 1000 μL of BD Pharmingen Stain Buffer.
Disrupt the pellet by gentle tapping. Resuspend pellets in 100 uL of Stain Buffer and add 5 μL of pSTAT5_AF488 Ab and 5 uL of pSTAT_PE in all wells except unstained control and mix properly using 200 μl multichannel, incubate overnight at […]. Add 900 μL of wash buffer and centrifuge at 1800 rpm for 3 minutes at 40° C. Wash one more time with 1000 μL of BD Pharmingen Stain Buffer. Finally resuspend the pellet in 300 uL of BD Pharmingen Stain Buffer. Transfer the cells to 96-well v-bottom plate and acquire the cells in Beckman Coulter CytExpert. Acquiring cells in Flow Cytometer: Keep the threshold value to 250 and cell concentration should not exceed 100-500 cells/μL. Acquire at least 5,000-10,000 cells.
RPMI 1640 Complete Medium: RPMI 1640 media+10% FBS.
Cytokine dilution: 1) GM-CSF Stock at 100 ug/mL. Prepare an intermediate dilution of 1 ug/mL by adding 2 uL of stock into 198 uL of cRPMI. Further dilute to 100 ng/mL by adding 100 uL of the intermediate stock to 900 uL of cRPMI. 2) IFNa Stock at 200 ug/mL. Dilute IFNa stock 1:200 by adding 5 uL of stock into the 1000 uL of 100 ng/mL GM-CSF working stock as above to give a combined working stock of 1000 ng/mL of IFNa and 100 ng/mL GM-CSF (10×). Keep it on ice until used.
Lyse/Fix buffer preparation: Dilute 5× Lyse/Fix buffer to 1× using MQ water and keep at 37° C. until used.
BD Phosflow perm buffer III: Keep on ice/fridge.

IC50 [nM] | Compound
1000 to 10000 | C#CCNC(=O)Nc1cnn2c(NC)cc(Nc3c(F)ccc4c3OCCO4)nc12 [Compound 135, 1-(5-((6-fluoro-2,3-dihydrobenzo[b][1,4]dioxin-5-yl)amino)-7-(methylamino)pyrazolo[1,5-a]pyrimidin-3-yl)-3-(prop-2-yn-1-yl)urea]
1000 to 10000 | CNC(=O)Nc1cnn2c(NC)cc(Nc3cccc4c3CCCC4)nc12 [Compound 170, 1-methyl-3-(7-(methylamino)-5-((5,6,7,8-tetrahydronaphthalen-1-yl)amino)pyrazolo[1,5-a]pyrimidin-3-yl)urea]
1000 to 10000 | CNC(=O)Nc1cnn2c(NC)cc(Nc3ccccc3OC(C)C)nc12 [Compound 162, 1-(5-((2-isopropoxyphenyl)amino)-7-(methylamino)pyrazolo[1,5-a]pyrimidin-3-yl)-3-methylurea]
1000 to 10000 | CNc1cc(Nc2cccc3c2OCCO3)nc2c(NC(=O)NC3CS(=O)(=O)C3)cnn12 [Compound 125, 1-(5-((2,3-dihydrobenzo[b][1,4]dioxin-5-yl)amino)-7-(methylamino)pyrazolo[1,5-a]pyrimidin-3-yl)-3-(1,1-dioxidothietan-3-yl)urea]
1000 to 10000 | CNc1cc(Nc2cccc3c2OCCO3)nc2c(NC(=O)NCC(C)(C)CO)cnn12 [Compound 141, 1-(5-((2,3-dihydrobenzo[b][1,4]dioxin-5-yl)amino)-7-(methylamino)pyrazolo[1,5-a]pyrimidin-3-yl)-3-(3-hydroxy-2,2-dimethylpropyl)urea]
1000 to 10000 | CNc1cc(Nc2cc(F)cc3c2OCCO3)nc2c(NC(=O)N[C@@H]3C[C@H]3F)cnn12 [Compound 187, 1-(5-((7-fluoro-2,3-dihydrobenzo[b][1,4]dioxin-5-yl)amino)-7-(methylamino)pyrazolo[1,5-a]pyrimidin-3-yl)-3-((1R,2R)-2-fluorocyclopropyl)urea]
< 1000 | CNC(=O)Nc1cnn2c(NC)cc(Nc3cccc4c3OCCC4)nc12 [Compound 157, 1-(5-(chroman-8-ylamino)-7-(methylamino)pyrazolo[1,5-a]pyrimidin-3-yl)-3-methylurea]
< 1000 | CNc1cc(Nc2cccc3nccnc23)nc2c(NC(=O)NCC#N)cnn12 [Compound 132, 1-(cyanomethyl)-3-(7-(methylamino)-5-(quinoxalin-5-ylamino)pyrazolo[1,5-a]pyrimidin-3-yl)urea]
< 1000 | CNc1cc(Nc2cccc3cccnc23)nc2c(NC(=O)NCC#N)cnn12 [Compound 127, 1-(cyanomethyl)-3-(7-(methylamino)-5-(quinolin-8-ylamino)pyrazolo[1,5-a]pyrimidin-3-yl)urea]
< 1000 | CNC(=O)Nc1cnn2c(NC)cc(Nc3cccc(OC)c3)nc12 [Compound 150, 1-(5-((3-methoxyphenyl)amino)-7-(methylamino)pyrazolo[1,5-a]pyrimidin-3-yl)-3-methylurea]
< 1000 | CNC(=O)Nc1cnn2c(NC)cc(Nc3cccc4c3CCCO4)nc12 [Compound 154, 1-(5-(chroman-5-ylamino)-7-(methylamino)pyrazolo[1,5-a]pyrimidin-3-yl)-3-methylurea]

The remaining lines, values behind:

Compound | IC50 [nM]
C#C[C@H](C)NC(=O)Nc1cnn2c(NC)cc(Nc3cccc4c3OCCO4)nc12 [Compound 123, (S)-1-(but-3-yn-2-yl)-3-(5-((2,3-dihydrobenzo[b][1,4]dioxin-5-yl)amino)-7-(methylamino)pyrazolo[1,5-a]pyrimidin-3-yl)urea] | < 1000
CNc1cc(Nc2cccc3c2OCCO3)nc2c(NC(=O)N[C@@H]3C[C@@H]3F)cnn12 [Compound 26, 1-(5-((2,3-dihydrobenzo[b][1,4]dioxin-5-yl)amino)-7-(methylamino)pyrazolo[1,5-a]pyrimidin-3-yl)-3-((1R,2S)-2-fluorocyclopropyl)urea] | < 1000
CNc1cc(Nc2cccc3c2OCCO3)nc2c(NC(N)=O)cnn12 [Compound 10, 1-(5-((2,3-dihydrobenzo[b][1,4]dioxin-5-yl)amino)-7-(methylamino)pyrazolo[1,5-a]pyrimidin-3-yl)urea] | < 1000
CNc1cc(Nc2cccc3c2OCCO3)nc2c(NC(=O)NC3CC(CO)C3)cnn12 (centres unmarked) [Compound 47, 1-(5-((2,3-dihydrobenzo[b][1,4]dioxin-5-yl)amino)-7-(methylamino)pyrazolo[1,5-a]pyrimidin-3-yl)-3-(3-(hydroxymethyl)cyclobutyl)urea] | < 1000
CNC(=O)Nc1cnn2c(NC)cc(-c3cn(C4COC4)c4ncccc34)nc12 [Compound 86, 1-methyl-3-(7-(methylamino)-5-(1-(oxetan-3-yl)-1H-pyrrolo[2,3-b]pyridin-3-yl)pyrazolo[1,5-a]pyrimidin-3-yl)urea] | 1000 to 10000
[2H]C([2H])([2H])Nc1cc(Nc2cccc3c2OCCO3)nc2c(NC(=O)NC)cnn12 [Compound 13, 1-(5-((2,3-dihydrobenzo[b][1,4]dioxin-5-yl)amino)-7-((methyl-d3)amino)pyrazolo[1,5-a]pyrimidin-3-yl)-3-methylurea] | < 1000
CNc1cc(Nc2cccc3nccnc23)nc2c(NC(=O)NC3CC3O)cnn12 (centres unmarked) [Compound 30, 1-(2-hydroxycyclopropyl)-3-(7-(methylamino)-5-(quinoxalin-5-ylamino)pyrazolo[1,5-a]pyrimidin-3-yl)urea] | ≥ 10000
CNC(=O)Nc1cnn2c(NC)cc(Nc3c(F)cccc3F)nc12 [Compound 90, 1-(5-((2,6-difluorophenyl)amino)-7-(methylamino)pyrazolo[1,5-a]pyrimidin-3-yl)-3-methylurea] | 1000 to 10000
CNC(=O)Nc1cnn2c(NC)cc(Nc3cc(C4CC4)cc4c3OCCO4)nc12 [Compound 96, 1-(5-((7-cyclopropyl-2,3-dihydrobenzo[b][1,4]dioxin-5-yl)amino)-7-(methylamino)pyrazolo[1,5-a]pyrimidin-3-yl)-3-methylurea] | < 1000
CNC(=O)Nc1cnn2c(NC)cc(Nc3cc(C)cc4c3OCCO4)nc12 [Compound 78, 1-methyl-3-(5-((7-methyl-2,3-dihydrobenzo[b][1,4]dioxin-5-yl)amino)-7-(methylamino)pyrazolo[1,5-a]pyrimidin-3-yl)urea] | < 1000
CNc1cc(Nc2cc(F)cc3c2OCCO3)nc2c(NC(=O)NC(C)C#N)cnn12 (centres unmarked) [Compound 120, 1-(1-cyanoethyl)-3-(5-((7-fluoro-2,3-dihydrobenzo[b][1,4]dioxin-5-yl)amino)-7-(methylamino)pyrazolo[1,5-a]pyrimidin-3-yl)urea] | < 1000
CNC(=O)Nc1cnn2c(NC)cc(Nc3cc(C#N)cc4c3OCCO4)nc12 [Compound 83, 1-(5-((7-cyano-2,3-dihydrobenzo[b][1,4]dioxin-5-yl)amino)-7-(methylamino)pyrazolo[1,5-a]pyrimidin-3-yl)-3-methylurea] | < 1000
CNC(=O)Nc1c(F)nn2c(NC)cc(Nc3cccc4c3OCCO4)nc12 [Compound 110, 1-(5-((2,3-dihydrobenzo[b][1,4]dioxin-5-yl)amino)-2-fluoro-7-(methylamino)pyrazolo[1,5-a]pyrimidin-3-yl)-3-methylurea] | ≥ 10000
CNC(=O)Nc1cnn2c(NC)cc(Nc3cccn(-c4ccc(OC)nn4)c3=O)nc12 [Compound 17, 1-(5-((1-(6-methoxypyridazin-3-yl)-2-oxo-1,2-dihydropyridin-3-yl)amino)-7-(methylamino)pyrazolo[1,5-a]pyrimidin-3-yl)-3-methylurea] | 1000 to 10000
CNc1cc(Nc2cc(C#N)cc3c2OCCO3)nc2c(NC(=O)NC3CC3)cnn12 [Compound 89, 1-(5-((7-cyano-2,3-dihydrobenzo[b][1,4]dioxin-5-yl)amino)-7-(methylamino)pyrazolo[1,5-a]pyrimidin-3-yl)-3-cyclopropylurea] | < 1000
